A value given as a limit tells only on which side of the number the result lay.

One test addresses T1, CRAC channel (Homo sapiens, UniProt Q96D31).
T1 construct: host or cells: HEK293
Briefly: HEK Calcium Influx Assay (FLIPR). The format is cell-based. The following applies: 10 μM; endogenous SOC in HEK293 cells, thapsigargin store depletion, Ca2+ signal 9.5-10 min post-administration; read-out: % inhib.[@ 10 μM] FLIPR. The procedure:
The effect of compounds of the invention on intracellular [Ca^2+] was tested in the HEK293 cell line (ECACC).
HEK293 cells were cultured in DMEM/F12/Glutamax (Gibco) containing 10% FCS (Gibco), and maintained at 37° C., 5% CO2. Cell were split twice a week [3*10^6 (Mon-Thu) and 1*10^6 (Thu-Mon) cells/50 ml medium in T-175 ZK culture flasks, respectively]. Twenty four hours pre-experiment, cells were seeded on 96 well plates (Poly-D-Lysine 96well Black/Clear Plate, BD Biocoat REF 356640) at a density of 40,000 cells/well in DMEM/F12 (Gibco) containing 10% FCS (Gibco), and maintained at 37° C., 5% CO2.
Prior to store-depletion, cell culture medium was removed and cells were loaded with the a Calcium-sensitive fluorescent dye comprised within the Calcium-4-assay kit (Molecular Devices) in nominally Ca^2+-free HBS buffer (140 mM NaCl, 4 mM KCl, 0.2 mM MgCl2, 11 mM D-glucose, and 10 mM HEPES, pH 7.4) according to manufacturer's instruction for 60 min at 37° C., 5% CO2.
Passive depletion of intracellular Ca^2+-stores was then triggered by employing the SERCA inhibitor thapsigargin (2 μM final) for 10 min in the dark (RT). To prevent immediate Ca^2+-entry via the activated Store-operated channels (SOCs), cells were maintained in Ca^2+-free HBS buffer comprising 100 μM EGTA during store-depletion.
Intracellular changes in [Ca^2+] were subsequently monitored with the FLIPR device (Molecular Devices). In brief, baseline imaging post-store depletion was allowed for 1 min before adjusting the extracellular buffer to 3 mM CaCl2. Increases in intracellular [Ca^2+] due to pre-activated SOC channels were monitored for 15 min until intracellular Ca^2+ levels had declined into a steady-state. Finally, compounds were administered and Ca^2+ signals were recorded for additional 10 min.
Inhibition of endogenous SOC in HEK293 cells was quantified employing the average Ca^2+ signal measured from 9.5-10 min post-administration. Zero percent inhibition (MAX) was defined as the Ca^2+ signal recorded from wells to which DMSO-only had been added instead of compound. Hundred percent inhibition (MIN) was defined as the signal obtained from wells in which cells haven't been treated with TG prior to Ca^2+ addition and to which DMSO-only had been added instead of compound. For routine IC50 determinations of compounds, 8 concentrations of a serial dilution (1:3.16) were tested, starting off from 10 μM. Reliable IC50's could consequently be determined only, if they were at least sub 2.5-3 μM.

In test [1] the test system is Interleukin-2 (IL-2) production/release. Kind of test: Jurkat IL-2 Production Assay. It is filed as cell-based. The following applies: Homo sapiens; Jurkat T cells clone E6-1, 15 μg/ml PHA for 22 hours, IL-2 in supernatant. Here is the method:
Jurkat IL-2 Production Assay
The effect of compounds of the invention on Interleukin-2 (IL-2) production/release was tested in the Jurkat T cell line (ECACC) clone E6-1.
Jurkat T cells were cultured in DMEM/F12/Glutamax (Gibco) containing 10% FCS (Gibco), and maintained at 37° C., 5% CO2. Cell were split twice a week [5*10^6 (Mon-Thu) and 1*10^7 (Thu-Mon) cells/50 ml medium in T-175 ZK culture flasks, respectively].
Prior to experiment, cells were seeded on 96 well plates (Cellstar 96 Well; Cat No. 655180, Greiner bio-one) at a density of 5*10^5 cells/well in DMEM/F12/Glutamax (Gibco) containing 10% FCS (Gibco), and incubated for 60 min at 37° C., 5% CO2. Subsequently, compounds were added and cells were allowed to incubate for 30 min at 37° C., 5% CO2. Cells were then stimulated with 15 μg/ml Phytohemagglutinin (PHA; Sigma) for 22 hours at 37° C., 5% CO2.
Before sampling of the supernatants, cells were spun down (200*g/5 min/RT). The amount of IL-2 released into the supernatant was quantified with the human IL-2 AlphaLisa kit (Perkin Elmer) according to manufacturer's instructions. Luminescence proximity measurements were carried out in the Synergy H4 reader (BioTek) employing the fluorescence setting of the reader (ex: 680/30 nm; em: 620/40 nm).
Inhibition of IL-Production/Release in/from Jurkat T Cells was Quantified as Follows:
Zero percent inhibition (MAX) was defined as the [IL-2] determined in supernatants derived from cells to which PHA & DMSO-only had been added instead of compound. Hundred percent inhibition (MIN) was defined as the [IL-2] determined in supernatants derived from cells that had been pre-treated with 1 μM CyclosporineA (Sigma) before the addition of 15 μg/ml PHA.
For routine IC50 determinations of compounds, 8 concentrations of a serial dilution (1:3.16) were tested, starting off from 10 μM.

T1 sequence (Q96D31 whole entry): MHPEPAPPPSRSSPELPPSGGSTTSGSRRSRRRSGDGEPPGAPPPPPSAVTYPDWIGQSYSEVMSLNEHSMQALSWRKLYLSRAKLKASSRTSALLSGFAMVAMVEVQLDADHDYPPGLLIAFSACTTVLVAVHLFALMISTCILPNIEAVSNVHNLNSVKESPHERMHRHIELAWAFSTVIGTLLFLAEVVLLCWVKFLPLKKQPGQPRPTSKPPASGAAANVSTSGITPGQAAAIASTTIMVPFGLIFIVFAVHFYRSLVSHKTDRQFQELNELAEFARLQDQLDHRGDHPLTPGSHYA

Consider `COc1ccccc1-c1cc(C(=O)Nc2c(F)cccc2F)nn1C` [Example 1, N-(2,6-Difluoro-phenyl)-5-(2-methoxyphenyl)-1-methyl-1H-pyrazole-3-carboxylic acid amide], for which the inhibition at 10 µM on CRAC channel was > 70%. The half-inhibitory concentration (IC50) in test [1] lay in the range of 1 to 5 µM.
The like results for `COc1ccc(OC)c(-c2cc(C(=O)Nc3ccc(F)cc3F)nn2C)c1` [Example 2, N-(2,4-Difluoro-phenyl)-5-(2,5-dimethoxyphenyl)-1-methyl-1H-pyrazole-3-carboxylic acid amide] were, in that order, > 70% and 1 to 5 µM.
For `CCOc1ccc(OC)cc1-c1cc(C(=O)Nc2ccncc2F)nn1C` [Example 3, 5-(2-Ethoxy-5-methoxy-phenyl)-N-(3-fluoro-pyridin-4-yl)-1-methyl-1H-pyrazole-3-carboxylic acid amide], in that order: < 50% and 1 to 5 µM.
For `CCOc1ccc(OC)cc1-c1cc(C(=O)Nc2c(F)cccc2F)nn1C` [Example 4, N-(2,6-Difluoro-phenyl)-5-(2-ethoxy-5-methoxy-phenyl)-1-methyl-1H-pyrazole-3-carboxylic acid amide], in that order: > 70% and 0.5 to 1 µM.
For `Cn1nc(C(=O)Nc2c(F)cccc2F)cc1-c1ccccc1C(F)(F)F` [Example 7, N-(2,6-Difluoro-phenyl)-1-methyl-5-[2-(trifluoromethyl)-phenyl]-1H-pyrazole-3-carboxylic acid amide], on CRAC channel, the inhibition at 10 µM was > 70%. Further, the concentration for half-maximal inhibition (IC50) in test [1] fell in the range of 0.5 to 1 µM.
With `COc1ccc(OC(F)(F)F)c(-c2cc(C(=O)Nc3c(F)cccc3F)nn2C)c1` [Example 8, N-(2,6-Difluoro-phenyl)-5-[5-methoxy-2-(trifluoromethyloxy)-phenyl]-1-methyl-1H-pyrazole-3-carboxylic acid amide], the inhibition at 10 µM at CRAC channel is > 70%. Further, in test [1], the IC50 was < 0.5 µM.
For `COc1ccc(OC(F)(F)F)c(-c2cc(C(=O)Nc3ccncc3F)nn2C)c1` [Example 9, N-(3-Fluoro-pyridin-4-yl)-5-[5-methoxy-2-(trifluoromethyloxy)-phenyl]-1-methyl-1H-pyrazole-3-carboxylic acid amide], in that order: > 70% and 1 to 5 µM.
For `COc1ccc(F)cc1-c1cc(C(=O)Nc2c(F)cccc2F)nn1C` [Example 10, N-(2,6-Difluoro-phenyl)-5-(5-fluoro-2-methoxy-phenyl)-1-methyl-1H-pyrazole-3-carboxylic acid amide], in that order: > 70% and 0.5 to 1 µM.
The like results for `Cn1nc(C(=O)Nc2c(F)cccc2F)cc1-c1ccc(OC(F)(F)F)cc1Cl` [Example 12, 5-[2-Chloro-4-(trifluoromethyloxy)-phenyl]-N-(2,6-difluoro-phenyl)-1-methyl-1H-pyrazole-3-carboxylic acid amide] were, in that order, > 70% and 0.5 to 1 µM.
Turning to `COc1ccc(OC)c(-c2cc(C(=O)Nc3ccncc3C#N)nn2C)c1` [Example 15, N-(3-Cyano-pyridin-4-yl)-5-(2,5-dimethoxyphenyl)-1-methyl-1H-pyrazole-3-carboxylic acid amide], the inhibition at 10 µM on CRAC channel fell in the range of 50 to 70%. The IC50 in test [1] fell in the range of 1 to 5 µM.
In the case of `COc1ccc(OC)c(-c2cc(C(=O)Nc3cnccc3C)nn2C)c1` [Example 16, 5-(2,5-Dimethoxyphenyl)-1-methyl-N-(4-methyl-pyridin-3-yl)-1H-pyrazole-3-carboxylic acid amide], the inhibition at 10 µM on CRAC channel was > 70%. Also, the 50% inhibitory concentration (IC50) in test [1] was 1 to 5 µM.
For `COc1ccc(OC)c(-c2cc(C(=O)Nc3cnc(C)cc3C)nn2C)c1` [Example 17, 5-(2,5-Dimethoxyphenyl)-N-(4,6-dimethyl-pyridin-3-yl)-1-methyl-1H-pyrazole-3-carboxylic acid amide], in that order: 50 to 70% and 1 to 5 µM.
For `COc1ccc(OC)c(-c2cc(C(=O)Nc3ncncc3C)nn2C)c1` [Example 18, 5-(2,5-Dimethoxyphenyl)-1-methyl-N-(5-methyl-pyrimidin-4-yl)-1H-pyrazole-3-carboxylic acid amide], in that order: < 50% and 1 to 5 µM.
For `COc1ccc(OC)c(-c2cc(C(=O)Nc3ccncc3C)nn2C)c1` [Example 20, 5-(2,5-Dimethoxyphenyl)-1-methyl-N-(3-methyl-pyridin-4-yl)-1H-pyrazole-3-carboxylic acid amide], in that order: > 70% and 0.5 to 1 µM.
Take `COc1ccc(OC)c(-c2cc(C(=O)Nc3c(F)cccc3F)nn2C)c1` [Example 21, N-(2,6-Difluoro-phenyl)-5-(2,5-dimethoxyphenyl)-1-methyl-1H-pyrazole-3-carboxylic acid amide]: the inhibition at 10 µM at CRAC channel was > 70%. Besides, in test [1], the IC50 is < 0.5 µM.
The like results for `COc1ccc(OC)c(-c2c(C)c(C(=O)Nc3ccncc3F)nn2C)c1` [Example 25, 5-(2,5-Dimethoxyphenyl)-N-(3-fluoro-pyridin-4-yl)-1,4-dimethyl-1H-pyrazole-3-carboxylic acid amide] were, in that order, > 70% and 0.5 to 1 µM.
As for `Cc1ccc(Cl)cc1-c1cc(C(=O)Nc2c(F)cccc2F)nn1C` [Example 26, 5-(5-Chloro-2-methyl-phenyl)-N-(2,6-difluoro-phenyl)-1-methyl-1H-pyrazole-3-carboxylic acid amide], the inhibition at 10 µM on CRAC channel was > 70%. Moreover, the IC50 in test [1] was in the range of 1 to 5 µM.
For `COc1ccc(OC)c(-c2cc(C(=O)Nc3ccccc3C)nn2C)c1` [Example 27, 5-(2,5-Dimethoxyphenyl)-1-methyl-N-(o-tolyl)-1H-pyrazole-3-carboxylic acid amide], in that order: > 70% and 1 to 5 µM.
The like results for `Cc1ccc(C(F)(F)F)cc1-c1cc(C(=O)Nc2c(F)cccc2F)nn1C` [Example 30, N-(2,6-Difluoro-phenyl)-1-methyl-5-[2-methyl-5-(trifluoromethyl)-phenyl]-1H-pyrazole-3-carboxylic acid amide] were, in that order, > 70% and 0.5 to 1 µM.
As to `Cc1cncc(F)c1NC(=O)c1cc(-c2c(F)cccc2C(F)(F)F)n(C)n1` [Example 63, N-(3-Fluoro-5-methyl-pyridin-4-yl)-5-[2-fluoro-6-(trifluoromethyl)-phenyl]-1-methyl-1H-pyrazole-3-carboxylic acid amide], the inhibition at 10 µM on CRAC channel is > 70%.
Still for that read-out and setting: the same measure for `Cc1ccncc1-c1cc(C(=O)Nc2ccccc2C(F)(F)F)nn1C` [Example 64, 1-Methyl-5-(4-methyl-pyridin-3-yl)-N-[2-(trifluoromethyl)-phenyl]-1H-pyrazole-3-carboxylic acid amide]: > 70%.
As for `Cc1ccncc1-c1cc(C(=O)Nc2c(C)cncc2F)nn1C` [Example 65, N-(3-Fluoro-5-methyl-pyridin-4-yl)-1-methyl-5-(4-methyl-pyridin-3-yl)-1H-pyrazole-3-carboxylic acid amide], the inhibition at 10 µM on CRAC channel was > 70%.

These data come from patent US9078899B2, “Pyrazolyl-based carboxamides II” (Grünenthal GmbH, priority 2013, dated 2015).
